Data published in PMC8007111, “Novel Potent Muscarinic Receptor Antagonists: Investigation on the Nature of Lipophilic Substituents in the 5- and/or 6-Positions of the 1,4-Dioxane Nucleus” (Journal of Medicinal Chemistry, 2020).

Tests used:
Conditions in all cases: [3H]NMS, CHO-K1 cell membranes; mean ± S.E.M.
[1] = target: T1, hM1 mAChR (Homo sapiens, UniProt P11229); assay: [3H]NMS inhibition radioligand binding, hM1 in CHO-K1 cell membranes
T1 construct: expressed in transfected cells; host or cells: CHO-K1 (membrane preparation)
T1 sequence (P11229 1-460): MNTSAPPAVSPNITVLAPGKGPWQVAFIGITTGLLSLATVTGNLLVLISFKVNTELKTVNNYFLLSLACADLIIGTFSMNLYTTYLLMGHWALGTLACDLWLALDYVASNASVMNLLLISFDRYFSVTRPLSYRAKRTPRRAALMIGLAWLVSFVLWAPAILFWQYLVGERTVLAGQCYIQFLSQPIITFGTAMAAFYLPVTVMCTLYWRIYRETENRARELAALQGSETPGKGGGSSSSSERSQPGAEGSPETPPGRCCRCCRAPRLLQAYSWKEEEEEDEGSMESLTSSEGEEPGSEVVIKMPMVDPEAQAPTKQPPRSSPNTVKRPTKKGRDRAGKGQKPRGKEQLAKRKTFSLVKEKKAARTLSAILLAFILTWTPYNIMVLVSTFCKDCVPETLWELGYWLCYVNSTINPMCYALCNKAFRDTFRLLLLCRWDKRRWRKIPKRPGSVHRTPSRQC
Experimental: (§1) CHO-K1 cells stably transfected with the human muscarinic receptor subtypes (hM1–5) were grown in Dulbecco’s modified Eagle’s medium (DMEM) with nutrient mixture F12 (DMEM/F12, 50/50), containing 10% fetal bovine serum, penicillin (100 U/mL), streptomycin (100 U/mL), L-glutamine (4 mM), and geneticin (G-418, 50 μg/mL) at 37 °C in a 5% CO2 humidified incubator. […] Serum (0.7 mL) was added to inactivate the trypsin, and the cells were spun down by centrifuging at 300g for 5 min. The cells were then resuspended in ice-cold 25 mM sodium phosphate buffer containing 5 mM MgCl2, pH 7.4 (binding buffer) and homogenized using a cell disrupter (Ultra-Turrax, setting 3, 30 s). The homogenate was sedimented by centrifugation (17,000g, 15 min). The supernatant was discarded, and the resulting membrane pellets were resuspended with Ultra-Turrax in the same buffer to give a final protein concentration of 1–2 mg/mL. The protein content was determined by the method of Bradford (1976) with bovine serum albumin (Sigma) as a standard and stored at −80 °C.
(§2) Inhibition radioligand binding assays were conducted as previously described[48],[49] with 0.2 nM [^3H]NMS in binding buffer in a final volume of 250 μL. Nonspecific binding was defined in the presence of 10 μM atropine. Briefly, membrane fractions (about 25–70 μg/mL of protein) were incubated with radioligand and unlabeled test compounds for 2 h at r.t. Bound and free radioactivity were separated by filtering the assay mixture through UniFilter GF/B plates using a FilterMate Cell Harvester (PerkinElmer Life and Analytical Science). The filter bound radioactivity was counted by a TopCount NXT Microplate Scintillation Counter (PerkinElmer Life and Analytical Science). Data (cpm) were normalized to percentage-specific binding and analyzed using a four-parameter logistic equation in GraphPad Prism 5.02; IC50 values were determined, and Ki values were calculated.[59]

[2] = target: T2, hM2 mAChR (Homo sapiens, UniProt P08172); assay: [3H]NMS inhibition radioligand binding, hM2 in CHO-K1 cell membranes
T2 construct: expressed in transfected cells; host or cells: CHO-K1 (membrane preparation)
T2 sequence (P08172 1-466): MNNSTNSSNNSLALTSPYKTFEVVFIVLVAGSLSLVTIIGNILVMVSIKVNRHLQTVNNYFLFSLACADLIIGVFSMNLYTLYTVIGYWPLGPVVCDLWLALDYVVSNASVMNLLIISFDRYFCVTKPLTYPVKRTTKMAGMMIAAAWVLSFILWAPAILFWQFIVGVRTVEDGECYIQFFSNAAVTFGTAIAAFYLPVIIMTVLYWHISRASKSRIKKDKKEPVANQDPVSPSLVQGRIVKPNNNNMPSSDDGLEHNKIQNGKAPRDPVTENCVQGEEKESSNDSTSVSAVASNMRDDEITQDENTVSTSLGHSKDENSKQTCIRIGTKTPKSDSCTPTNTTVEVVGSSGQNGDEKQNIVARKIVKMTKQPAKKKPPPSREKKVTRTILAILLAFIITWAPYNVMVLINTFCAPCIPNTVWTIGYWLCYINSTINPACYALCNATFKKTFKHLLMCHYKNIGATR
Experimental: as §1, §2

[3] = target: T3, hM3 mAChR (Homo sapiens, UniProt P20309); assay: [3H]NMS inhibition radioligand binding, hM3 in CHO-K1 cell membranes
T3 construct: expressed in transfected cells; host or cells: CHO-K1 (membrane preparation)
T3 sequence (P20309 whole entry): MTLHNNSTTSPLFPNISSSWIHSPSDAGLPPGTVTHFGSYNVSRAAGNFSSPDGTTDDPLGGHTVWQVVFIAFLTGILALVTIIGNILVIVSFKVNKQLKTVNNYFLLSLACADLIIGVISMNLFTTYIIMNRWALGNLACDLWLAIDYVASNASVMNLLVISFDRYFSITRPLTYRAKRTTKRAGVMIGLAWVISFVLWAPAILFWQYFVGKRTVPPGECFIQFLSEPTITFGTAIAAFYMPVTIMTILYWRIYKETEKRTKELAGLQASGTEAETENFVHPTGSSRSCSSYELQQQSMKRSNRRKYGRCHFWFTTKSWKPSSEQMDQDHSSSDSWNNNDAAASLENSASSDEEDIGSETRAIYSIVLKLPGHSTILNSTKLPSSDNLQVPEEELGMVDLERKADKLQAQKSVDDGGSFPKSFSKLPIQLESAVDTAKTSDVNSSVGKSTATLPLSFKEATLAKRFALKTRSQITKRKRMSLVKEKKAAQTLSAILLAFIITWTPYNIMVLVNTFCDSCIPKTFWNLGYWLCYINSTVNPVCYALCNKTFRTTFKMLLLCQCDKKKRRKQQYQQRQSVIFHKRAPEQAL
Experimental: as §1, §2

[4] = target: T4, hM4 mAChR (Homo sapiens, UniProt P08173); assay: [3H]NMS inhibition radioligand binding, hM4 in CHO-K1 cell membranes
T4 construct: expressed in transfected cells; host or cells: CHO-K1 (membrane preparation)
T4 sequence (P08173 1-479): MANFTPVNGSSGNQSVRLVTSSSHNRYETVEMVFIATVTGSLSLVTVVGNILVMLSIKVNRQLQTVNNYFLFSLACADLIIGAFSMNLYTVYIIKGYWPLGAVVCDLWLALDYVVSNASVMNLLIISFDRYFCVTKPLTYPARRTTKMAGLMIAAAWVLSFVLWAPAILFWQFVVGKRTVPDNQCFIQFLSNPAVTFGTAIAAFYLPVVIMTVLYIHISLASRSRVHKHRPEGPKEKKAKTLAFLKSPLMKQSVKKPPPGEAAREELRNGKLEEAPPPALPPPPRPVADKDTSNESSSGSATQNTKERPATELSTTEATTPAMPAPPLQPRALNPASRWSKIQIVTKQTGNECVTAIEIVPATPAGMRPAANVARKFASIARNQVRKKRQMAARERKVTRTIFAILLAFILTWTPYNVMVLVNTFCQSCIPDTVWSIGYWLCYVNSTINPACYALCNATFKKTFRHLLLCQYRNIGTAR
Experimental: as §1, §2

[5] = target: T5, hM5 mAChR (Homo sapiens, UniProt P08912); assay: [3H]NMS inhibition radioligand binding, hM5 in CHO-K1 cell membranes
T5 construct: expressed in transfected cells; host or cells: CHO-K1 (membrane preparation)
T5 sequence (P08912 1-532): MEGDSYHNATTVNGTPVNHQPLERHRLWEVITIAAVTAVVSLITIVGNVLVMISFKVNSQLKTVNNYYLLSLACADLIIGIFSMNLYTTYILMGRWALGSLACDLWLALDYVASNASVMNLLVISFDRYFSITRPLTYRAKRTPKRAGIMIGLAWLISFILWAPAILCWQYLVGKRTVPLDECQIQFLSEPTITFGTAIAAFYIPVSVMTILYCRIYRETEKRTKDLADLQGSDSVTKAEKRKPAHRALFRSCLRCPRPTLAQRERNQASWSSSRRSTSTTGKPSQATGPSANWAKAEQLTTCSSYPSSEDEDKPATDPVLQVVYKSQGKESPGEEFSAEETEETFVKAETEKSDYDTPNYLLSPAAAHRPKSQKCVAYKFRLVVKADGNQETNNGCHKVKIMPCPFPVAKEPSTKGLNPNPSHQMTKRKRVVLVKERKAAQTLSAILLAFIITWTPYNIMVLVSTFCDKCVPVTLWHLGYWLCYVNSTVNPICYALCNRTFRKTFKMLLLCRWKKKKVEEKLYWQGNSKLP
Experimental: as §1, §2

SMILES | pKi hM1 [1] | pKi hM2 [2] | pKi hM3 [3] | pKi hM4 [4] | pKi hM5 [5]
C[N+](C)(C)C[C@@H]1CO[C@](c2ccccc2)(C2CCCCC2)CO1.[I-] (relative stereo) [11b, 1-((2R*,5S*)-5-Cyclohexyl-5-phenyl-1,4-dioxan-2-yl)-N,N,N-trimethylmethanaminium Iodide] | 7.81 ± 0.04 | 7.22 ± 0.11 | 7.36 ± 0.10 | 7.23 ± 0.10 | 7.32 ± 0.09
C[N+](C)(C)C[C@@H]1CO[C@H](C(c2ccccc2)c2ccccc2)CO1.[I-] (relative stereo) [12a, 1-((2R*,5R*)-5-Benzhydryl-1,4-dioxan-2-yl)-N,N,N-trimethylmethanaminium Iodide] | 6.28 ± 0.08 | 5.87 ± 0.09 | 5.77 ± 0.03 | 5.60 ± 0.06 | 5.49 ± 0.06
C[N+](C)(C)C[C@@H]1CO[C@@H](C(c2ccccc2)c2ccccc2)CO1.[I-] (relative stereo) [12b, 1-((2R*,5S*)-5-Benzhydryl-1,4-dioxan-2-yl)-N,N,N-trimethylmethanaminium Iodide] | 6.08 ± 0.07 | 6.06 ± 0.08 | 5.62 ± 0.11 | 5.52 ± 0.06 | 5.20 ± 0.01
C[N+](C)(C)C[C@@H]1CO[C@H](c2ccc(-c3ccccc3)cc2)CO1.[I-] (relative stereo) [13a, 1-((2R*,5R*)-5-([1,1′-Biphenyl]-4-yl)-1,4-dioxan-2-yl)-N,N,N-trimethylmethanaminium Iodide] | <5 | <5 | <5 | <5 | <5
C[N+](C)(C)C[C@@H]1CO[C@@H](c2ccc(-c3ccccc3)cc2)CO1.[I-] (relative stereo) [13b, 1-((2R*,5S*)-5-([1,1′-Biphenyl]-4-yl)-1,4-dioxan-2-yl)-N,N,N-trimethylmethanaminium Iodide] | <5 | 5.49 ± 0.02 | <5 | <5 | <5
C[N+](C)(C)C[C@@H]1CO[C@H](c2ccc(Cc3ccccc3)cc2)CO1.[I-] (relative stereo) [14a, 1-((2R*,5R*)-5-(4-Benzylphenyl)-1,4-dioxan-2-yl)-N,N,N-trimethylmethanaminium Iodide] | <5 | 5.65 ± 0.05 | 5.65 ± 0.12 | <5 | 5.53 ± 0.13
C[N+](C)(C)C[C@@H]1CO[C@@H](c2ccc(Cc3ccccc3)cc2)CO1.[I-] (relative stereo) [14b, 1-((2R*,5S*)-5-(4-Benzylphenyl)-1,4-dioxan-2-yl)-N,N,N-trimethylmethanaminium Iodide] | <5 | <5 | <5 | <5 | <5

Now from value to compound:

pKi hM1 [1] | pKi hM2 [2] | pKi hM3 [3] | pKi hM4 [4] | pKi hM5 [5] | SMILES
5.43 ± 0.09 | 6.70 ± 0.13 | 6.01 ± 0.11 | 5.70 ± 0.01 | 6.00 ± 0.14 | C[N+](C)(C)C[C@@H]1CO[C@H](c2ccc(Sc3ccccc3)cc2)CO1.[I-] (relative stereo) [15a, 1-((2R*,5R*)-5-(4-(Phenylthio)phenyl)-1,4-dioxan-2-yl)-N,N,N-trimethylmethanaminium Iodide]
5.57 ± 0.07 | 5.86 ± 0.04 | 5.35 ± 0.06 | 5.14 ± 0.01 | 5.40 ± 0.15 | C[N+](C)(C)C[C@@H]1CO[C@@H](c2ccc(Sc3ccccc3)cc2)CO1.[I-] (relative stereo) [15b, 1-((2R*,5S*)-5-(4-(Phenylthio)phenyl)-1,4-dioxan-2-yl)-N,N,N-trimethylmethanaminium Iodide]
<5 | 5.52 ± 0.02 | <5 | <5 | 5.21 ± 0.08 | C[N+](C)(C)C[C@@H]1CO[C@H](c2ccc([S+]([O-])c3ccccc3)cc2)CO1.[I-] (relative stereo) [16a, 1-((2R*,5R*)-5-(4-(Phenylsulfinyl)phenyl)-1,4-dioxan-2-yl)-N,N,N-trimethylmethanaminium Iodide]
5.17 ± 0.09 | 6.38 ± 0.10 | 5.88 ± 0.14 | 5.42 ± 0.02 | 5.72 ± 0.15 | C[N+](C)(C)C[C@@H]1CO[C@@H](c2ccc([S+]([O-])c3ccccc3)cc2)CO1.[I-] (relative stereo) [16b, 1-((2R*,5S*)-5-(4-(Phenylsulfinyl)phenyl)-1,4-dioxan-2-yl)-N,N,N-trimethylmethanaminium Iodide]
<5 | 6.39 ± 0.04 | 5.14 ± 0.10 | <5 | 5.05 ± 0.08 | C[N+](C)(C)C[C@@H]1CO[C@H](c2ccc(S(=O)(=O)c3ccccc3)cc2)CO1.[I-] (relative stereo) [17a, 1-((2R*,5R*)-5-(4-(Phenylsulfonyl)phenyl)-1,4-dioxan-2-yl)-N,N,N-trimethylmethanaminium Iodide]
<5 | <5 | <5 | <5 | <5 | C[N+](C)(C)C[C@@H]1CO[C@@H](c2ccc(S(=O)(=O)c3ccccc3)cc2)CO1.[I-] (relative stereo) [17b, 1-((2R*,5S*)-5-(4-(Phenylsulfonyl)phenyl)-1,4-dioxan-2-yl)-N,N,N-trimethylmethanaminium Iodide]
